In US20130165471A1, “2-SUBSTITUTED-THIENOQUINOLONES AND RELATED COMPOUNDS AS ANTI-INFECTIVE AGENTS” (Achillion Pharmaceuticals Inc., priority 2011, published 2013):
Converted amounts (≈) assume the structure as drawn.

What was measured:
Hep2 = assay: Cytotoxicity, cell viability staining with Alamar Blue; type: cell-based, human; design: unit not given here; settings: Hep2 cells
Protocol: (§1) The preparation of compounds listed in Table I can be carried out under conditions analogous to those described in the examples above. Those of skill in the art will recognize routine changes in reaction conditions and starting materials needed to produce the listed compounds. For example, compound 5 in Table I, is prepared by the method shown above, except tert-butyl (1-(pyrrolidin-3-yl)ethyl)carbamate, prepared by the method shown in Schoeder, et al., J. Heterocyclic Chem., 29: 1481-1498 (1992), is used as the amine starting material. Compound activity was evaluated in a standard minimal inhibitory concentration assay such as the assay provided in Example 4. Compound cytotoxicity is determined using a standard assay of cytotoxicity such as the assay provided in Example 5. Compounds 10, 14, and 20 of Table I are provided as comparative examples.
To determine whether the microcidal effect observed against S. aureus and E. coli is specific to bacterial cells, compounds are screened for cell viability effects on several human cell types.
Optimal cell density is first determined by plating cells in a 96-well plate standard sterile tissue culture plates in 100 μl media, 10% FBS at six cell densities from 500 cells/well to 15,000 cells/well. A cell free well containing only media is used as a control. Cells are incubated at 37° C. in a 5% CO2 incubator for 24 hours. 10% culture volume (10 ul) of Alamar Blue (Biosource, DAL1100, 100 mL) is then added. Cells are incubated at 37° C. in a 5% CO2 incubator and read in a Victor V plate reader, 544 nm excitation, 590 nm emission, at 3, 4, and 24 hours after the addition of Alamar Blue. The cell number vs. change in fluorescence is plotted to determine linearity of signal vs. cell number. The optimal density varies between 500-15,000 cells/well depending on the specific cell type. The optimal density is selected based on the highest number of cells that is still in the linear response range.
Cells are plated at optimal cell density in a standard sterile tissue culture 96 well plate, and incubated at 37° C., O/N in a 5% CO2 incubator. 12 to 48 hours post-plating media is removed. The cells are washed 1 or 2 times with 1×PBS and replaced with fresh media containing the test compound in 1% DMSO. 24 to 72 hours after addition of compound, the media is removed, and the cells washed 1 to 2 times with 1×PBS. Fresh media containing 1/10 volume of Alamar Blue is then added. Plates are incubated 4 hours at 37° C. in a 5% CO2 incubator and read in a Victor V plate reader, 544 nm excitation, 590 nm emission.
Compounds are diluted to 20 micromolar in 1% DMSO and media and screened in duplicate to obtain single concentration cytotoxicity data. Eight concentration points from 0.78 micromolar to 100 micromolar, run in duplicate, are used to determine cytotoxicity CC50 values. Cells with 1% DMSO and media are used as a negative control, compounds having a known CC50 against a particular cell type are used as positive controls.
The change in fluorescence vs. concentration of test compound is plotted to determine the cytotoxicity of the compound.

S. aureus ATCC 29213 = assay: Minimum inhibitory concentration (MIC) assay, MSSA; type: cell-based; settings: Staphylococcus aureus, broth microdilution
Protocol: as §1
(§2) The antimicrobial activity of the compounds of the invention may be evaluated by a number of methods, including the following visual minimum inhibitory concentration (MIC) assay. This assay determines the minimum concentration of compound required to inhibit growth of a bacterial strain.
(§3) Whole-cell antibacterial activity is determined by broth microdilution using conditions recommended by the NCCLS (see National Committee for Clinical Laboratory Standards. 2001. Performance standards for antimicrobial susceptibility testing: 11th informational supplement. Vol. 21, no. 1, M100-S11. National Committee for Clinical Laboratory Standards, Wayne, Pa.). Test compounds are dissolved in DMSO and diluted 1:50 in Mueller-Hinton II broth (Becton-Dickinson) to produce a 256 μg/ml stock solution. In a 96-well microtiter plate, the compound solution is serially two-fold diluted in Mueller-Hinton II broth. After the compounds are diluted, a 50 μl aliquot of the test organism (˜1×10^6 cfu/mL) is added to each well of the microtiter plate. The final test concentrations range from 0.125-128 μg/mL. Inoculated plates are incubated in ambient air at 37° C. for 18 to 24 hours. The organisms selected for testing included laboratory strains S. aureus ATCC 29213 and E. coli ATCC 25922 (strains purchased from American Type Culture Collection, Manassas, Va.) m, S. aureus FQR700699, and Paeruginosa 27853. The minimum inhibitory concentration (MIC) is determined as the lowest concentration of compound that inhibited visible growth of the test organism.

[1] = system: fluoroquinolone-resistant S. aureus ATCC 700699; assay: Minimum inhibitory concentration (MIC) assay, MRSA; type: cell-based; settings: Staphylococcus aureus, broth microdilution
Protocol: as §1, §2, §3

Row | MIC (S. aureus ATCC 29213) [µg/mL] | MIC [1] [µg/mL] | SMILES | Cytotoxicity Hep2 (Hep2)
1 | 0.5 (≈ 1.09 µM) | 2 (≈ 4.34 µM) | COc1c(N2CCCC(CN)C2)c(F)cc2c(=O)c3c(O)c(C(N)=O)sc3n(C3CC3)c12 (stereo not drawn) [Compound 5, 7-(3-(aminomethyl)piperidin-1-yl)-9-cyclopropyl-6-fluoro-3-hydroxy-8-methoxy-4-oxo-4,9-dihydrothieno[2,3-b]quinoline-2-carboxamide] | 30
2 | 0.25 (≈ 0.511 µM) | 0.5 (≈ 1.02 µM) | COc1c(N2CCCC(=C(F)CN)C2)c(F)cc2c(=O)c3c(O)c(C(C)=O)sc3n(C3CC3)c12 [Compound 6, 2-acetyl-7-(3-(2-amino-1-fluoroethylidene)piperidin-1-yl)-9-cyclopropyl-6-fluoro-3-hydroxy-8-methoxythieno [2,3-b]quinolin-4(9H)-one] | –
3 | 0.13 (≈ 0.301 µM) | 0.25 (≈ 0.579 µM) | COc1c(N2CC[C@H](N)C2)c(F)cc2c(=O)c3c(O)c(C(C)=O)sc3n(C3CC3)c12 [Compound 7, (S)-2-acetyl-7-(3-aminopyrrolidin-1-yl)-9-cyclopropyl-6-fluoro-3-hydroxy-8-methoxythieno [2,3-b]quinolin-4(9H)-one] | 35
4 | 0.03 (≈ 0.0653 µM) | 0.13 (≈ 0.283 µM) | COc1c(N2CC[C@@H]([C@H](C)N)C2)c(F)cc2c(=O)c3c(O)c(C(C)=O)sc3n(C3CC3)c12 [Compound 8, 2-acetyl-7-((R)-3-((S)-1-aminoethyl)pyrrolidin-1-yl)-9-cyclopropyl-6-fluoro-3-hydroxy-8-methoxythieno [2,3-b]quinolin-4(9H)-one] | 9
5 | 0.25 (≈ 0.544 µM) | 1 (≈ 2.18 µM) | COc1c(N2CCC(CN)CC2)c(F)cc2c(=O)c3c(O)c(C(C)=O)sc3n(C3CC3)c12 [Compound 9, 2-acetyl-7-(4-(aminomethyl)piperidin-1-yl)-9-cyclopropyl-6-fluoro-3-hydroxy-8-methoxythieno[2,3-b] quinolin-4(9H)-one] | 42
6 | 4 (≈ 9.91 µM) | – | COc1c(N2CC[C@@H](CN)C2)c(F)cc2c(=O)c3c(O)csc3n(C3CC3)c12 [Compound 10, (S)-7-(3-(aminomethyl)pyrrolidin-1-yl)-9-cyclopropyl-6-fluoro-3-hydroxy-8-methoxythieno[2,3-b] quinolin-4(9H)-one] | 24
7 | 0.13 (≈ 0.267 µM) | 0.5 (≈ 1.03 µM) | COc1c(N2CC[C@@H](CNC(C)=O)C2)c(F)cc2c(=O)c3c(O)c(C(C)=O)sc3n(C3CC3)c12 [Compound 11, (S)-N-((1-(2-acetyl-9-cyclopropyl-6-fluoro-3-hydroxy-8-methoxy-4-oxo-4,9-dihydrothieno [2,3-b]quinolin-7-yl)pyrrolidin-3-yl)methyl) acetamide] | 60
8 | 0.13 (≈ 0.292 µM) | 0.25 (≈ 0.561 µM) | COc1c(N2CC[C@H](CN)C2)c(F)cc2c(=O)c3c(O)c(C(C)=O)sc3n(C3CC3)c12 [Compound 13, (R)-2-acetyl-7-(3-(aminomethyl)pyrrolidin-1-yl)-9-cyclopropyl-6-fluoro-3-hydroxy-8-methoxythieno[2,3-b] quinolin-4(9H)-one] | –
9 | 32 (≈ 71.8 µM) | > 64 | COc1c(N2CC[C@@H](CNC(C)=O)C2)c(F)cc2c(=O)c3c(n(C4CC4)c12)SCC3=O [Compound 14, (S)-N-((1-(9-cyclopropyl-6-fluoro-8-methoxy-3,4-dioxo-2,3,4,9-tetrahydrothieno [2,3-b]quinolin-7-yl)pyrrolidin-3-yl)methyl) acetamide] | –
10 | 0.5 (≈ 0.995 µM) | 1 (≈ 1.99 µM) | COc1c(N2CC[C@@H](CNC(=O)CN)C2)c(F)cc2c(=O)c3c(O)c(C(C)=O)sc3n(C3CC3)c12 [Compound 15, (S)-N-((1-(2-acetyl-9-cyclopropyl-6-fluoro-3-hydroxy-8-methoxy-4-oxo-4,9-dihydrothieno [2,3-b]quinolin-7-yl)pyrrolidin-3-yl)methyl)-2-aminoacetamide] | –
11 | 32 (≈ 51.8 µM) | > 64 | COc1c(N2CC[C@@H](CNS(=O)(=O)c3cc(F)ccc3C)C2)c(F)cc2c(=O)c3c(O)c(C(C)=O)sc3n(C3CC3)c12 [Compound 16, (R)-N-((1-(2-acetyl-9-cyclopropyl-6-fluoro-3-hydroxy-8-methoxy-4-oxo-4,9-dihydrothieno [2,3-b]quinolin-7-yl)pyrrolidin-3-yl)methyl)-5-fluoro-2-methylbenzenesulfonamide] | –
12 | > 64 | > 64 | COc1c(N2CC[C@@H](CNS(=O)(=O)c3cc(F)ccc3C)C2)c(F)cc2c(=O)c3c(OS(=O)(=O)c4cc(F)ccc4C)c(C(C)=O)sc3n(C3CC3)c12 [Compound 17, (R)-2-acetyl--cyclopropyl-6-fluoro-7-(3-((5-fluoro-2-methylphenylsulfonamido)methyl)pyrrolidin-1-yl)-8-methoxy-4-oxo-4,9-dihydrothieno[2,3-b] quinolin-3-yl 5-fluoro-2-methylbenzenesulfonate] | –
13 | 0.25 (≈ 0.528 µM) | 1 (≈ 2.11 µM) | COc1c(N2CC[C@H](NC(C)=O)C2)c(F)cc2c(=O)c3c(O)c(C(C)=O)sc3n(C3CC3)c12 [Compound 18, (S)-N-(1-(2-acetyl-9-cyclopropyl-6-fluoro-3-hydroxy-8-methoxy-4-oxo-4,9-dihydrothieno [2,3-b]quinolin-7-yl)pyrrolidin-3-yl)acetamide] | –
14 | 0.25 (≈ 0.498 µM) | 0.5 (≈ 0.997 µM) | COc1c(N2CC[C@@H]([C@H](C)NC(C)=O)C2)c(F)cc2c(=O)c3c(O)c(C(C)=O)sc3n(C3CC3)c12 [Compound 19, N-((S)-1-((R)-1-(2-acetyl-9-cyclopropyl-6-fluoro-3-hydroxy-8-methoxy-4-oxo-4,9-dihydrothieno[2,3-b]quinolin-7-yl)pyrrolidin-3-yl)ethyl) acetamide] | –
15 | 4 (≈ 9.58 µM) | 16 (≈ 38.3 µM) | COc1c(N2CC[C@@H]([C@H](C)N)C2)c(F)cc2c(=O)c3c(n(C4CC4)c12)SCC3=O [Compound 20, 7-((R)-3-((S)-1-aminoethyl)pyrrolidin-1-yl)-9-cyclopropyl-6-fluoro-8-methoxythieno[2,3-b] quinoline-3,4(2H,9H)-dione] | –
16 | 0.13 (≈ 0.283 µM) | 1 (≈ 2.18 µM) | COc1c(N2CC[C@@H]([C@@H](C)N)C2)c(F)cc2c(=O)c3c(O)c(C(C)=O)sc3n(C3CC3)c12 [Compound 21, 2-acetyl-7-((R)-3-((R)-1-aminoethyl)pyrrolidin-1-yl)-9-cyclopropyl-6-fluoro-3-hydroxy-8-methoxythieno[2,3-b] quinolin-4(9H)-one] | –
17 | > 64 | > 64 | COc1c(N2CC[C@@H]([C@H](C)NC(=O)OC(C)(C)C)C2)c(F)cc2c(=O)c3c(O)c(C(C)=O)sc3n(C3CC3)c12 [Compound 22, tert-butyl ((S)-1-((R)-1-(2-acetyl-9-cyclopropyl-6-fluoro-3-hydroxy-8-methoxy-4-oxo-4,9-dihydrothieno[2,3-b]quinolin-7-yl)pyrrolidin-3-yl)ethyl)carbamate] | –
